Experimental data reported in patent US11339171B2, “MDM2 inhibitors” (Gan & Lee Pharmaceuticals, priority 2017, dated 2022).
pIC50: −log10 of the molar value. Values joined by “and” are separate entries in the source; they are usually repeats but may differ in a detail not shown here. Equal entries are not always repeated. Where two headings read alike, the source gives them in different places.

Experiments:
[1] = target: T1, MDM2 (Homo sapiens, UniProt Q00987); experiment: Inhibition test of MDM2-P53 (GST-MDM2, Biotin-P53, Anti-GST-Tb, SA-XL665); type: binding
T1 construct: made in house
T1 sequence (Q00987 whole entry): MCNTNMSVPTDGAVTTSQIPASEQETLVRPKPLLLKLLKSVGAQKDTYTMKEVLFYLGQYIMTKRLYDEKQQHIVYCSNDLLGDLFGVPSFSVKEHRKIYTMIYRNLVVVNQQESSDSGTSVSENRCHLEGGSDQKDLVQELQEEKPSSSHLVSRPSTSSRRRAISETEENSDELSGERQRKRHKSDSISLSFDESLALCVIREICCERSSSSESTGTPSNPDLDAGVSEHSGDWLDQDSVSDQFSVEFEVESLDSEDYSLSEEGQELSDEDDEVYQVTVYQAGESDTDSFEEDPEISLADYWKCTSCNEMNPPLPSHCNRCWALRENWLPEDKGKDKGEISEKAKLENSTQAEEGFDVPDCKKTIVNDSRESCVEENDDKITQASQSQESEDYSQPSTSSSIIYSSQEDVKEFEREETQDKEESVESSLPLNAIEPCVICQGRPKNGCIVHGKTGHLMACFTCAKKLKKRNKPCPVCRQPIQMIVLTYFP
Outline: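 HTRF-type assay using 4 nM GST-MDM2 (final), Biotin-P53, SA-XL665 and anti-GST-Tb in PBS with 0.1% BSA, 5 mM DTT and 1 mM AEBSF. Compounds in 5-fold serial dilutions over twelve points; incubation 90 min at 25° C with shaking before plate-reader read-out.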

[2] = Pharmacokinetics in ICR mice after intravenous and intragastric administration; type: in vivo; settings: for F*: PO 5 mg/kg vs IV 2 mg/kg, mean; for MRT last: read-out: MRT(0-t); for MRT inf: read-out: MRT(0-∞); for Vd: read-out: Vz
Outline: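 Plasma concentration-time data, quantified by LC-MS/MS with a 1 ng/mL lower limit, gave AUC, t1/2, MRT, Cmax, Tmax, bioavailability, Vz and clearance. Overnight-fasted male ICR mice (three per route) received 2 mg/kg intravenously or 5 mg/kg intragastrically.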

[3] = test system: human osteosarcoma cell line SJSA-1; experiment: Inhibition of proliferation of human osteosarcoma cell line SJSA-1 (DAPI staining, In Cell Analyzer); settings: Homo sapiens, SJSA-1, 72 h, read-out: IC50 (nM), inhibitory activity on proliferation of human osteosarcoma cell line SJSA-1, SJSA-1, incubated 72 h
[4] = ICR mice, IV 2 mg/kg, individual animals 301-303, 2 mg/kg
[5] = ICR mice, PO 5 mg/kg, individual animals 401-403, 5 mg/kg
[6] = male, ICR, mouse, plasma, iv, 2 mg/kg, ICR mice, IV 2 mg/kg, individual animals 301-303
[7] = male, ICR, mouse, plasma, iv, 2 mg/kg, ICR mice, IV 2 mg/kg, individual animals 301-303, read-out: AUC(0-t)
[8] = male, ICR, mouse, plasma, iv, 2 mg/kg, ICR mice, IV 2 mg/kg, individual animals 301-303, read-out: Cmax
[9] = male, ICR, mouse, plasma, iv, 2 mg/kg, ICR mice, IV 2 mg/kg, individual animals 301-303, read-out: Tmax
[10] = male, ICR, mouse, plasma, iv, 2 mg/kg, ICR mice, IV 2 mg/kg, individual animals 301-303, read-out: t1/2 (converted)
[11] = male, ICR, mouse, plasma, iv, 2 mg/kg, ICR mice, IV 2 mg/kg, mean of 3 animals
[12] = male, ICR, mouse, plasma, iv, 2 mg/kg, ICR mice, IV 2 mg/kg, mean of 3 animals, read-out: AUC(0-t)
[13] = male, ICR, mouse, plasma, iv, 2 mg/kg, ICR mice, IV 2 mg/kg, mean of 3 animals, read-out: Cmax
[14] = male, ICR, mouse, plasma, iv, 2 mg/kg, ICR mice, IV 2 mg/kg, mean of 3 animals, read-out: Tmax
[15] = male, ICR, mouse, plasma, iv, 2 mg/kg, ICR mice, IV 2 mg/kg, mean of 3 animals, read-out: t1/2 (converted)
[16] = male, ICR, mouse, plasma, po, 5 mg/kg, ICR mice, PO 5 mg/kg, individual animals 401-403
[17] = male, ICR, mouse, plasma, po, 5 mg/kg, ICR mice, PO 5 mg/kg, individual animals 401-403, read-out: AUC(0-t)
[18] = male, ICR, mouse, plasma, po, 5 mg/kg, ICR mice, PO 5 mg/kg, individual animals 401-403, read-out: Cmax
[19] = male, ICR, mouse, plasma, po, 5 mg/kg, ICR mice, PO 5 mg/kg, individual animals 401-403, read-out: t1/2 (converted)
[20] = male, ICR, mouse, plasma, po, 5 mg/kg, ICR mice, PO 5 mg/kg, mean of 3 animals
[21] = male, ICR, mouse, plasma, po, 5 mg/kg, ICR mice, PO 5 mg/kg, mean of 3 animals, read-out: AUC(0-t)
[22] = male, ICR, mouse, plasma, po, 5 mg/kg, ICR mice, PO 5 mg/kg, mean of 3 animals, read-out: Cmax
[23] = male, ICR, mouse, plasma, po, 5 mg/kg, ICR mice, PO 5 mg/kg, mean of 3 animals, read-out: Tmax
[24] = male, ICR, mouse, plasma, po, 5 mg/kg, ICR mice, PO 5 mg/kg, mean of 3 animals, read-out: t1/2 (converted)
[25] = male, ICR, mouse, plasma, po, 5 mg/kg, oral intragastric administration 5 mg/kg, read-out: AUC0-t
[26] = male, ICR, mouse, plasma, po, 5 mg/kg, oral intragastric administration 5 mg/kg, read-out: half-life (converted)

## COc1cc(OC(C)C)ncc1-c1nc2c(n1C(C)C)[C@@]1(C(=O)Nc3cc(Cl)ccc31)N(c1cc(Cl)cnc1C)C2=O [Example S-137, (S)-6-chloro-5′-(5-chloro-2-methylpyridin-3-yl)-2′-(6-isopropoxy-4-methoxypyridin-3-yl)-3′-isopropyl-3′H-spiro[dihydroindole-3,4′-pyrrolo[3,4-d]imidazole]-2,6′(5′H)-dione]
[1]
  pIC50: 8.78
[2]; [4]
  AUC(0-t): 15555.08 ng·h/mL and 10168.14 ng·h/mL
  AUC(0-∞): 15581.80 ng·h/mL and 10938.18 ng·h/mL
  CL: 2.14 mL/min/kg and 3.05 mL/min/kg
  Cmax: 5945.51 ng/mL and 5653.28 ng/mL
  MRT(0-t): 2.84 h and 1.50 h
  MRT(0-∞): 2.88 h and 1.97 h
  Vz: 0.52 L/kg and 0.41 L/kg
  t1/2: 2.79 h and 1.57 h
[2]; ICR mice
  F*: 53.35%
[2]; [5]
  AUC(0-t): 16097.34 ng·h/mL and 14779.57 ng·h/mL
  AUC(0-∞): 17159.38 ng·h/mL and 15367.65 ng·h/mL
  Cmax: 5542.83 ng/mL and 6791.01 ng/mL
  MRT(0-t): 2.31 h and 2.03 h
  MRT(0-∞): 2.84 h and 2.35 h
  t1/2: 1.98 h and 1.69 h
[2]; [6]
  AUC(0-inf): 9740 ng·h/mL
  clearance: 3.42 mL/min/kg
  MRT last: 1.51 h
  MRT inf: 2.06 h
  Vd: 0.5 L/kg
[2]; [7]
  AUC(0-t): 8960 ng·h/mL
[2]; [8]
  Cmax: 5260 ng/mL
[2]; [9]
  Tmax: 0.08 h
[2]; [10]
  half-life: 1.68 h
[2]; [11]
  AUC(0-inf): 12100 ng·h/mL
  clearance: 2.87 mL/min/kg
  MRT last: 1.95 h
  MRT inf: 2.3 h
  Vd: 0.48 L/kg
[2]; [12]
  AUC(0-t): 11600 ng·h/mL
[2]; [13]
  Cmax: 5620 ng/mL
[2]; [14]
  Tmax: 0.083 h
[2]; [15]
  half-life: 2.01 h
[2]; [16]
  AUC(0-inf): 16200 ng·h/mL
  MRT last: 2.28 h
  MRT inf: 2.7 h
[2]; [17]
  AUC(0-t): 15400 ng·h/mL
[2]; [18]
  Cmax: 5880 ng/mL
[2]; male, ICR, mouse, plasma, po, 5 mg/kg, ICR mice, PO 5 mg/kg, individual animals 401-403, read-out: Tmax
  Tmax: 0.5 h
[2]; [19]
  half-life: 1.85 h
[2]; [20]
  AUC(0-inf): 16200 ng·h/mL
  MRT last: 2.21 h
  MRT inf: 2.63 h
[2]; [21]
  AUC(0-t): 15400 ng·h/mL
[2]; [22]
  Cmax: 6070 ng/mL
[2]; [23]
  Tmax: 0.5 h
[2]; [24]
  half-life: 1.84 h
[2]; [25]
  AUC(0-t): 15400 ng·h/mL
[2]; [26]
  half-life: 1.84 h
[3]
  IC50: 65.9 nM

## COc1cc(C(F)(F)F)ncc1-c1nc2c(n1C(C)C)[C@@]1(C(=O)Nc3cc(Cl)ccc31)N(c1cc(Cl)ccc1C)C2=O [Example S-138, (S)-6-chloro-5′-(5-chloro-2-methylphenyl)-3′-isopropyl-2′-(4-methoxy-6-(trifluoromethyl)pyridin-3-yl)-3′H-spiro[dihydroindole-3,4′-pyrrolo[3,4-d]imidazole]-2,6′(5′H)-dione]
[1]
  pIC50: 8.98
[2]; [4]
  AUC(0-t): 3427.99 ng·h/mL and 6387.52 ng·h/mL
  AUC(0-∞): 5237.36 ng·h/mL and 6445.45 ng·h/mL
  CL: 6.36 mL/min/kg and 5.17 mL/min/kg
  Cmax: 2002.99 ng/mL and 1828.27 ng/mL
  MRT(0-t): 4.04 h and 2.03 h and 4.19 h
  MRT(0-∞): 5.54 h and 4.42 h
  Vz: 2.37 L/kg and 1.70 L/kg
  t1/2: 4.29 h and 3.81 h
[2]; ICR mice
  F*: 58.12%
[2]; [5]
  AUC(0-t): 7494.57 ng·h/mL and 8147.05 ng·h/mL
  AUC(0-∞): 8818.35 ng·h/mL and 9514.89 ng·h/mL
  Cmax: 1475.55 ng/mL and 1466.48 ng/mL
  MRT(0-t): 3.19 h and 3.27 h
  MRT(0-∞): 4.51 h and 4.52 h
  Tmax: 4.00 h and 2.00 h and 1.00 h
  t1/2: 2.74 h
[2]; [6]
  AUC(0-inf): 6130 ng·h/mL
  clearance: 5.44 mL/min/kg
  MRT inf: 4.32 h
  Vd: 1.9 L/kg
[2]; [7]
  AUC(0-t): 6060 ng·h/mL
[2]; [8]
  Cmax: 2170 ng/mL
[2]; [9]
  Tmax: 0.08 h
[2]; [10]
  half-life: 4.03 h
[2]; [11]
  AUC(0-inf): 5940 ng·h/mL
  clearance: 5.66 mL/min/kg
  MRT last: 3.42 h
  MRT inf: 4.76 h
  Vd: 1.99 L/kg
[2]; [12]
  AUC(0-t): 5290 ng·h/mL
[2]; [13]
  Cmax: 2000 ng/mL
[2]; [14]
  Tmax: 0.083 h
[2]; [15]
  half-life: 4.04 h
[2]; [16]
  AUC(0-inf): 9150 ng·h/mL
  MRT last: 3.56 h
  MRT inf: 5.12 h
[2]; [17]
  AUC(0-t): 7430 ng·h/mL
[2]; [18]
  Cmax: 1240 ng/mL
[2]; [19]
  half-life: 2.69 h
[2]; [20]
  AUC(0-inf): 9160 ng·h/mL
  MRT last: 3.34 h
  MRT inf: 4.72 h
[2]; [21]
  AUC(0-t): 7690 ng·h/mL
[2]; [22]
  Cmax: 1390 ng/mL
[2]; [23]
  Tmax: 2.33 h
[2]; [24]
  half-life: 2.72 h
[2]; [25]
  AUC(0-t): 7690 ng·h/mL
[2]; [26]
  half-life: 2.72 h
[3]
  IC50: 75.7 nM
